# Biological target: T1, SpiCA3 (Stylophora pistillata, UniProt A0A1B0Y357)
# T1 construct: gene CA3
# T1 sequence (A0A1B0Y357 1-258): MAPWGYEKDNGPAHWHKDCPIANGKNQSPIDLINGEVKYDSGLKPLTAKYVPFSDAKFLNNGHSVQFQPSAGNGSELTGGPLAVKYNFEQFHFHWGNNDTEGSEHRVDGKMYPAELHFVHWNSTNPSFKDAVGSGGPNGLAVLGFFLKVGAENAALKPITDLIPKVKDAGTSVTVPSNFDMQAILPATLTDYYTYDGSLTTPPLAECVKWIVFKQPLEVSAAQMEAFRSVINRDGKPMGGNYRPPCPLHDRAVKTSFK
# Assay: stopped-flow CO2 hydration, phenol red, Cheng-Prusoff
# Assay type: biochemical
# Details: not given
row,Compound,Ki
1,I [I^−],0.56 mM
2,Cl [Cl^−],0.51 mM
3,O=C(O)O [HCO3^−],0.4 mM
4,S [HS^−],0.34 mM
5,O=NO [NO2^−],0.45 mM
6,O=S(=O)(O)C(F)(F)F [Triflate],0.29 mM
7,[N-]=[N+]=[N-] [N3^−],0.08 mM
8,OB(O)c1ccccc1 [Ph-B(OH)2],> 100 mM
9,N#C[SeH] [SeCN^−],0.15 mM

# Same assay, conditions: read-out: KI [mM] ^# / SpiCA3 ^c
row,Ki,Compound
1,0.044 mM,CCN(CC)C(=S)S [Et2NCS2^−]
2,0.0007 mM,NS(N)(=O)=O [H2NSO2NH2]
3,> 100 mM,NS(=O)(=O)O [H2NSO3H]
4,0.47 mM,S=C(S)S [CS3^2^−]

# Source: paper PMC6073313, “Comparison of the Anion Inhibition Profiles of the α-CA Isoforms (SpiCA1, SpiCA2 and SpiCA3) from the Scleractinian Coral Stylophora pistillata” (International Journal of Molecular Sciences, 2018)
